Measurements as given in patent US20260176279A1, “DUAL RAF AND TUBULIN INHIBITORS AND METHODS OF USE THEREOF” (Deciphera Pharmaceuticals, LLC, priority 2023, published 2026).
pIC50: −log10 of the molar value. Read-outs that look alike come from different tables or passages of the source.

Key:
C-Raf kinase = target: T1, C-Raf kinase (Homo sapiens, UniProt P04049, Y340D/Y341D); assay: Biochemical Assay for C-Raf (coupled pyruvate kinase/lactate dehydrogenase assay)
T1 construct: C-Raf residues 306-end; Y340D, Y341D with N-; GST (N); purchased Eurofins

MiaPaca-2 cells = assay: MiaPaca-2 Cell Proliferation Assay; assay type: cell-based; settings: Homo sapiens, MIA PaCa-2
Protocol: MiaPaca-2 cells (catalog #CRL-1420) are obtained from the American Type Culture Collect (ATTC, Manassas, VA). Briefly, cells were grown in DMEM supplemented with 10% characterized fetal bovine serum (Invitrogen, Carlsbad, CA), 2.5% New Zealand sourced horse serum and 1% Penicillin/Streptomycin/L-Glutamine at 37° C., 5% CO2, and 95% humidity. Cells are expanded until reaching 70-95% confluency at which point they are sub-cultured or harvested for assay use. For assays completed in 96-well plates, a serial dilution of test compound is dispensed into a 96-well black clear bottom plate in triplicate. Three thousand cells are added per well in 200 μL complete growth medium in the 96-well plate. Plates are incubated for 67 to 72 h at 37° C., 5% CO2, and 95% humidity. At the end of the incubation, 40 μL of a […] solution of resazurin (Sigma, St. Louis, MO) in PBS is added to each well of the plate and plates are incubated for an additional 5 to 6 hours at 37° C., 5% CO2, and 95% humidity. For 384-well assays, a threefold, 8-point serial dilution of compound was spotted column wise into a 384 well black, clear bottom, tissue culture treated plate using the Beckman Coulter Echo 650. Likewise, a threefold, 8-point serial dilution of cobimetinib was spotted row wise into the 384 well black, clear bottom plate containing compound. DMSO concentration was constant across all wells at 0.4%. Seven hundred fifty cells are added per well in 50 μL complete growth medium in each 384-well plate. Plates are incubated for 67 to 72 h at 37° C., 5% CO2, and 95% humidity. At the end of the incubation, 10 μL of a 440 μM solution of resazurin (Sigma, St. Louis, MO) in PBS is added to each well of the plate and plates are incubated for an additional 4 to 6 h at 37° C., 5% CO2, and 95% humidity. Plates are read on a Synergy2 or equivalent reader (Biotek, Winooski VT) using an excitation of 540 nm and an emission of 600 nm. Data is analyzed using Prism software (Graphpad, San Diego, CA) to calculate IC50 values.

tubulin = assay: Cellular Tubulin Polymerization Assay (HCT-116 cells); assay type: cell-based; settings: Table 3, HCT-116 cells; read-out: Tubulin Cellular IC50
HPAF-II cells = assay: HPAF-II Cell Proliferation Assay; assay type: cell-based; settings: Homo sapiens
Protocol: HPAF-II cells (catalog #CRL-1997) are obtained from the American Type Culture Collect (ATCC, Manassas, VA). Briefly, cells are grown in Minimum Essential Media supplemented with 10% characterized fetal bovine serum (Invitrogen, Carlsbad, CA) and 1% Penicillin/Streptomycin/L-Glutamine at 37° C., 5% CO2, and 95% humidity. Cells are expanded until reaching 70-95% confluency at which point they are sub-cultured or harvested for assay use. A serial dilution of test compound is dispensed into a 384-well black clear bottom plate in triplicate. 750 cells are added per well in 50 μL complete growth medium in the 384-well plate. Plates are incubated for 115 to 120 h at 37° C., 5% CO2, and 95% humidity. At the end of the incubation, 40 μL of a […] solution of resazurin (Sigma, St. Louis, MO) in PBS is added to each well of the plate and plates are incubated for an additional 18 to 24 h at 37° C., 5% CO2, and 95% humidity. Plates are read on a Synergy2 or equivalent reader (Biotek, Winooski, VT) using an excitation of 540 nm and an emission of 600 nm. Data is analyzed using Prism software (Graphpad, San Diego, CA) to calculate IC50 values.

Pa16c cells = assay: Pa16c Cell Proliferation Assay; assay type: cell-based; settings: Table 2, inhibition of cell proliferation
Protocol: Pa16c cells are obtained from Dr. Channing Der, University of North Carolina at Chapel Hill. Briefly, cells are grown in Dulbecco's Modified Eagle Medium supplemented with 10% characterized fetal bovine serum (Invitrogen, Carlsbad, CA) and 1% Penicillin/Streptomycin/L-Glutamine at 37° C., 5% CO2, and 95% humidity. Cells are expanded until reaching 70-95% confluency at which point they are sub-cultured or harvested for assay use. A serial dilution of test compound is dispensed into a 384-well black clear bottom plate in triplicate. 750 cells are added per well in 50 μL complete growth medium in the 384-well plate. Plates are incubated for 67 to 72 hours at 37° C., 5% CO2, and 95% humidity. At the end of the incubation, 40 μL of a […] solution of resazurin (Sigma, St. Louis, MO) in PBS is added to each well of the plate and plates are incubated for an additional 18 to 24 hours at 37° C., 5% CO2, and 95% humidity. Plates are read on a Synergy2 or equivalent reader (Biotek, Winooski, VT) using an excitation of 540 nm and an emission of 600 nm. Data is analyzed using Prism software (Graphpad, San Diego, CA) to calculate IC50 values.

B-Raf kinase = target: T2, B-Raf kinase (Homo sapiens, UniProt P15056); assay: Biochemical Assay for B-Raf (coupled pyruvate kinase/lactate dehydrogenase assay)
T2 construct: GST (N); purchased Sigma

HCT-116 cells = assay: HCT-116 Cell Proliferation Assay; assay type: cell-based; settings: Homo sapiens
Protocol: HCT-116 cells (catalog #CCL-247) are obtained from the American Type Culture Collect (ATCC, Manassas, VA). Briefly, cells are grown in McCoy's 5A supplemented with 10% characterized fetal bovine serum (Invitrogen, Carlsbad, CA) and 1% Penicillin/Streptomycin/L-Glutamine at 37° C., 5% CO2, and 95% humidity. Cells are expanded until reaching 70-95% confluency at which point they are sub-cultured or harvested for assay use. A serial dilution of test compound is dispensed into a 384-well black clear bottom plate in triplicate. 375 cells are added per well in 50 μL complete growth medium in the 384-well plate. Plates are incubated for 67 to 72 h at 37° C., 5% CO2, and 95% humidity. At the end of the incubation, 40 μL of a […] solution of resazurin (Sigma, St. Louis, MO) in PBS is added to each well of the plate and plates are incubated for an additional 4 to 5 hours at 37° C., 5% CO2, and 95% humidity. Plates are read on a Synergy2 or equivalent reader (Biotek, Winooski, VT) using an excitation of 540 nm and an emission of 600 nm. Data is analyzed using Prism software (Graphpad, San Diego, CA) to calculate IC50 values.

[1] = Table 1, inhibition of biochemical activity, read-out: CRAF
[2] = Table 2, inhibition of cell proliferation, read-out: MiaPaca-2
[3] = Table 3, read-out: MiaPaca-2 IC50
[4] = HPAF-II, Table 3, read-out: HPAF-II IC50
[5] = Table 2, inhibition of cell proliferation, read-out: HPAF-II
[6] = Table 1, inhibition of biochemical activity, read-out: BRAF
[7] = HCT-116, Table 3, read-out: HCT-116 IC50
[8] = Table 2, inhibition of cell proliferation, read-out: HCT-116

T2 sequence (P15056 416-766): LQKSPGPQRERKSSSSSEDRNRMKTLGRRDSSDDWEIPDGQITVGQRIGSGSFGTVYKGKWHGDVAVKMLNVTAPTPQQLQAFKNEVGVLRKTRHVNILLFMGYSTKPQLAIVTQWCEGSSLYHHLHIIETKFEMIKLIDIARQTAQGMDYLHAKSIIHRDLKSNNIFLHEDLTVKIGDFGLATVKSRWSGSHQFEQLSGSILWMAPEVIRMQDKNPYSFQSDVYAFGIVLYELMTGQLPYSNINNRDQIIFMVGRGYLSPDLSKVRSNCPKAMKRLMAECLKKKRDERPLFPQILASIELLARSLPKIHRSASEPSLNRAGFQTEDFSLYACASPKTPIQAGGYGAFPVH
T1 sequence (P04049 307-648 Y340D/Y341D): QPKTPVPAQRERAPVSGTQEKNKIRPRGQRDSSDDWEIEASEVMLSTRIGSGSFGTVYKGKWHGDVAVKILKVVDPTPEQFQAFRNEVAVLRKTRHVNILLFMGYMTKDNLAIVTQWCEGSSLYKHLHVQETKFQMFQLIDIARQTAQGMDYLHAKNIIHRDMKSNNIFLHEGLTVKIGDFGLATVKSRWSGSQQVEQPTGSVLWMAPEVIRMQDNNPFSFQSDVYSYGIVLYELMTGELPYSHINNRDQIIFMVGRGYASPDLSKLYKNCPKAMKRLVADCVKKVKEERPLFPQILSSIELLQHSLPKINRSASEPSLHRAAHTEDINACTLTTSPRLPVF

| Compound | pIC50 (C-Raf kinase; [1]) | pIC50 (C-Raf kinase; Table 3, read-out: CRAF IC50) | pIC50 (MiaPaca-2 cells; [2]) | pIC50 (MiaPaca-2 cells; [3]) | pIC50 (tubulin) | pIC50 (B-Raf kinase; [6]) | pIC50 (B-Raf kinase; Table 3, read-out: BRAF IC50) | pIC50 (HCT-116 cells; [7]) | pIC50 (HCT-116 cells; [8]) | pIC50 (HPAF-II cells; [4]) | pIC50 (HPAF-II cells; [5]) | pIC50 (Pa16c cells) |
| --- | --- | --- | --- | --- | --- | --- | --- | --- | --- | --- | --- | --- |
| CC(=O)Nc1cc(-c2cc(-c3cc(NC(=O)Nc4ccc(C(F)(F)F)nc4)ccc3C)ccn2)ccn1 [Example 4] | > 7.00 | > 7.00 | > 7.00 | > 7.00 | > 7.00 | > 7.00 | > 7.00 | > 7.00 | > 7.00 | 6.30 to 7.00 | 6.30 to 7.00 | > 7.00 |
| CNc1cc(-c2cc(-c3cc(NC(=O)Nc4ccc(C(F)(F)F)nc4)ccc3C)cc(OCCO)n2)ccn1 [Example 17] | > 7.00 | 6.30 to 7.00 | > 7.00 | > 7.00 | – | 6.30 to 7.00 | 6.30 to 7.00 | > 7.00 | > 7.00 | 6.00 to 6.30 | 6.00 to 6.30 | > 7.00 |
| CC(=O)Nc1cc(-c2cc(-c3cc(NC(=O)Nc4ccc(C(F)(F)F)nc4)ccc3C)cn(C)c2=O)ccn1 [Example 9] | > 7.00 | > 7.00 | > 7.00 | > 7.00 | > 7.00 | > 7.00 | > 7.00 | > 7.00 | > 7.00 | 6.00 to 6.30 | 6.00 to 6.30 | 6.30 to 7.00 |

Second part, led by results:

| pIC50 (C-Raf kinase; [1]) | pIC50 (C-Raf kinase; Table 3, read-out: CRAF IC50) | pIC50 (MiaPaca-2 cells; [2]) | pIC50 (MiaPaca-2 cells; [3]) | pIC50 (tubulin) | pIC50 (B-Raf kinase; [6]) | pIC50 (B-Raf kinase; Table 3, read-out: BRAF IC50) | pIC50 (HCT-116 cells; [7]) | pIC50 (HCT-116 cells; [8]) | Compound | pIC50 (HPAF-II cells; [4]) | pIC50 (HPAF-II cells; [5]) | pIC50 (Pa16c cells) |
| --- | --- | --- | --- | --- | --- | --- | --- | --- | --- | --- | --- | --- |
| > 7.00 | > 7.00 | > 7.00 | > 7.00 | > 7.00 | 6.30 to 7.00 | 6.30 to 7.00 | > 7.00 | > 7.00 | Cc1ccc(NC(=O)Nc2ccc(C(F)(F)F)nc2)cc1-c1cc(OC[C@H](C)O)nc(N2CCOCC2)c1 [Example 39] | > 7.00 | > 7.00 | 6.30 to 7.00 |
| > 7.00 | 6.30 to 7.00 | > 7.00 | > 7.00 | > 7.00 | 6.30 to 7.00 | 6.30 to 7.00 | > 7.00 | > 7.00 | Cc1ccc(NC(=O)Nc2ccc(C(F)(F)F)nc2)cc1-c1cc(N2CCOCC2)nc(N2CCC(O)CC2)n1 [Example 34] | 6.30 to 7.00 | 6.30 to 7.00 | 6.00 to 6.30 |
| > 7.00 | – | 6.00 to 6.30 | – | – | > 7.00 | – | – | 6.00 to 6.30 | Cc1ccc(NC(=O)Nc2cc(C(F)(F)F)cnn2)cc1-c1ccnc(-c2ccnc(NC(=O)C3CC3)c2)c1 [Example 22, N-(4-(2-methyl-5-(3-(5-(trifluoromethyl)pyridazin-3-yl)ureido)phenyl)-[2,4′-bipyridin]-2′-yl)cyclopropanecarboxamide] | – | 5.00 to 6.00 | 5.00 to 6.00 |
| > 7.00 | > 7.00 | > 7.00 | > 7.00 | > 7.00 | > 7.00 | 6.30 to 7.00 | > 7.00 | > 7.00 | Cc1ccc(NC(=O)Nc2ccc(C(F)(F)F)nc2)cc1-c1cc(OC[C@@H](C)O)nc(N2CCOCC2)c1 [Example 40] | > 7.00 | > 7.00 | 6.30 to 7.00 |
